Laboratory results reported in article PMC6272715, “Discovery of Novel Small Molecule Anti-HCV Agents via the CypA Inhibitory Mechanism Using O-Acylation-Directed Lead Optimization” (Molecules, 2015).
Like-named read-outs stand apart in the source and are kept apart here.

Columns and labels:
HCV subgenomic replicon = settings: cited from earlier work
JFH1-2a (S282T) virus = assay: HCV virus assay, mutant JFH1-2a (S282T) virus strain; type: cell-based; settings: Hepatitis C virus, read-out: Anti-HCV Activity (Virus Assay) EC50 ± SD JFH1-2a (S282T)
HCV Con1-1b replicon = assay: HCV Con1-1b subgenomic replicon assay; type: cell-based; settings: Hepatitis C virus; Table 4; read-out: Anti-HCV Activity EC50 ± SD Replicon Assay Con1-1b
[1] = rats, intravenous injection of 25 (2 mg∙kg^−1)
B spleen cells = assay: Spleen cells proliferation inhibition assay (MTT), B spleen cells; type: cell-based, mouse (ICR); settings: mouse spleen cells, 72 h, read-out: B Spleen Cells IC50 ± SD
Procedure: Preparation of Splenocyte Suspension: The spleen was aseptically taken from female ICR mice strains (6–8 weeks-old, 20 ± 2 g), crushed gently and separated into single cells by squeezing in 20 mL RPMI 1640 medium (Invitrogen, shanghai, China). The cells obtained were passed through 70 μM nylon cell strainer and centrifuged at 1000 rpm∙min^−1 for 5 min at RT. Pellets were added into 10 mL erythrocytes lysis buffer (150 mM NH4Cl, 10 mM KHCO3 and 0.1 mM EDTA) followed by centrifugation to remove erythrocytes. After washing twice with complete medium (RPMI 1640 containing 100 U∙mL^−1 of penicillin, 100 U∙mL^−1 of streptomycin and 10% FBS), they were re-suspended in the complete medium and used for cell culture.

[2] = tested on: JFH1-2a virus (wild type); assay: HCV virus assay, JFH1-2a wild type, Huh 7.5.1 cells; settings: Hepatitis C virus
[3] = Cell proliferation (cytotoxicity) assay, WST-1; type: cell-based; settings: human
Procedure: Cell Proliferation Assay: Huh 7.5.1 cells were seeded at a density of 2 × 10^4 cells per well in 96-well plates overnight. The cells were respectively incubated with serial diluted compounds for 48 h, and the viability of Huh7.5.1 cells was determined in 96-well tissue culture plates using cell proliferation reagent WST-1 (Roche, Basel, Switzerland). The absorbance (OD450 /reference OD630) was measured to detect the cytotoxicity of compounds, according to the manufacturer’s protocol of Cell Proliferation Reagent WST-1.

HCV JFH1-2a replicon = assay: HCV JFH1-2a subgenomic replicon assay (Renilla luciferase, Huh 7.5.1 replicon cells); type: cell-based; settings: Hepatitis C virus
HCV H77-1a replicon = assay: HCV H77-1a subgenomic replicon assay; type: cell-based; settings: Hepatitis C virus; Table 4; read-out: Anti-HCV Activity EC50 ± SD Replicon Assay H77-1a
in vivo = settings: male, SD, rat, iv, i.v. 2 mg 25/kg; for AUC(0-inf): AUC0-∞
T spleen cells = assay: Spleen cells proliferation inhibition assay (MTT), T spleen cells; type: cell-based, mouse (ICR); settings: mouse spleen cells, 72 h, read-out: T Spleen Cells IC50 ± SD
Procedure: Preparation of Splenocyte Suspension: The spleen was aseptically taken from female ICR mice strains (6–8 weeks-old, 20 ± 2 g), crushed gently and separated into single cells by squeezing in 20 mL RPMI 1640 medium (Invitrogen, shanghai, China). The cells obtained were passed through […] nylon cell strainer and centrifuged at 1000 rpm∙min^−1 for 5 min at RT. Pellets were added into 10 mL erythrocytes lysis buffer (150 mM NH4Cl, 10 mM KHCO3 and 0.1 mM EDTA) followed by centrifugation to remove erythrocytes. After washing twice with complete medium (RPMI 1640 containing 100 U∙mL^−1 of penicillin, 100 U∙mL^−1 of streptomycin and 10% FBS), they were re-suspended in the complete medium and used for cell culture.
After 72 h of incubation, the cell growth was evaluated with MTT assay. The assay plates were added 10 μL of 5 mg∙mL^−1 MTT per well and incubated for 4 h. The formazan generated was solubilized with 100 μL of solution (10% SDS, 5% isobutyl alcohol, and 10 mM HCl) after incubated at 37 °C overnight. The absorption at 580 nm relative to 680 nm was measured by SpectraMax Plus 384 Reader (Molecular Devices, Shanghai, China).

CypA = CypA (Homo sapiens, UniProt P62937); assay: CypA enzyme inhibition assay (chymotrypsin-coupled PPIase assay); type: biochemical; settings: mean ± SD of five independent experiments
Sequence of CypA (P62937 whole entry): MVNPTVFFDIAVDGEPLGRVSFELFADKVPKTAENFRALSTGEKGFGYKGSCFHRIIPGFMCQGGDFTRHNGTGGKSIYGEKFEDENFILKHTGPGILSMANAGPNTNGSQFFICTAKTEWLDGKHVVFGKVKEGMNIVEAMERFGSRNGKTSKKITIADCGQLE
Procedure: The PPIase activity of CypA was conducted in a coupled assay with chymotrypsin using the synthetic tetrapeptide N-succinyl-Ala-Ala-Pro-Phe-p-nitroanilide (Sigma, Shanghai, China) as described in [34] with small modifications. The assay buffer (20 mM Tris-HCl, 50 mM NaCl, pH 7.8) and CypA were precooled at 4 °C and mixed with 0.4 mg∙mL^−1 chymotrypsin (20 mg∙mL^−1 in 1 mM HCl). The reaction was initiated by adding peptide substrate (2 mg∙mL^−1 in 500 mM LiCl in tetrahydrofuran (THF)). […] Absorbance readings were collected every 0.1 s and the temperature was controlled at 4 °C during the assay. The progress curves were analyzed by nonlinear least-squares fit. The inhibition assays of compounds were performed in the same manner as above-mentioned. […] of test compounds in DMSO, at various concentrations, was added to the CypA solution in the assay buffer. After being preincubated for 1 h at 4 °C, the assay was started by the addition of chymotrypsin and the substrate. To calculate the half-maximal inhibitory concentration (IC50), a percent of the remaining PPIase activity was plotted against the common logarithm of the compound concentration, and the data were fitted using the sigmoidal fitting model of Origin 7.0 software.

[4] = Huh-7.5.1, read-out: Anti-HCV Activity (Virus Assay) EC50 ± SD JFH1-2a (Wild Type)
[5] = Huh-7.5.1, read-out: Anti-HCV Activity EC50 ± SD Virus Assay JFH1-2a
[6] = Table 1, mean ± SD of three independent experiments, read-out: Anti-HCV JFH1-2a Replicon Assay EC50 ± SD
[7] = Table 4, read-out: Anti-HCV Activity EC50 ± SD Replicon Assay JFH1-2a
[8] = SD rats, Mean ± SD (Rat 1 and 3)

SMILES | EC50 (JFH1-2a (S282T) virus) [nM] | EC50 (HCV Con1-1b replicon) [nM] | EC50 [2, 4] [nM] | EC50 [2, 5] [nM] | CC50 at 48 h ([3]; Huh 7.5.1 cells, Table 4, 48 h) [nM] | EC50 (HCV JFH1-2a replicon; [6]) [nM] | EC50 (HCV JFH1-2a replicon; [7]) [nM] | EC50 (HCV H77-1a replicon) [nM] | IC50 (CypA) [nM] | also measured
C/C=C/C[C@@H](C)[C@@H](O)[C@H]1C(=O)N[C@@H](CC)C(=O)N(C)[C@H](SCCN(C)C)C(=O)N(C)[C@@H](CC(C)(C)O)C(=O)N[C@@H](C(C)C)C(=O)N(C)[C@@H](CC(C)C)C(=O)N[C@@H](C)C(=O)N[C@H](C)C(=O)N(C)[C@@H](CC(C)C)C(=O)N(C)[C@@H](CC(C)C)C(=O)N(C)[C@@H](C(C)C)C(=O)N1C [SCY-635] |  |  |  |  |  |  |  |  |  | EC50 (HCV subgenomic replicon; ref [27], read-out: EC50 (subgenomic replicon assay, con1-derived)): 100 nM
O=C(NC(=O)c1c(O)cccc1O)NC1c2ccccc2-c2ccccc21 [Compound 1] | 560 ± 130 | 780 ± 190 | 520 ± 160 | 670 ± 230 | > 16000 | 920 ± 120 | 920 ± 120 | 1110 ± 330 |  | plasma concentration after 5 min (mean ± SD) [1]: 904.5 ± 291.9 ng/mL; IC50 (B spleen cells): 51900 ± 8680 nM; CC50 at 48 h ([3]; Huh 7.5.1 cells, Table 5): > 20000 nM; AUC(0-inf) (in vivo; SD rat, Rat 1): 335 ng·h/mL; AUC(0-inf) (in vivo; SD rat, Rat 3): 324 ng·h/mL; AUC(0-inf) (in vivo; [8]): 329 ± 8.08 ng·h/mL; Cmax (in vivo; SD rat, Rat 1): 698 ng/mL; Cmax (in vivo; SD rat, Rat 3): 1110 ng/mL; Cmax (in vivo; [8]): 904 ± 292 ng/mL; MRT (in vivo; SD rat, Rat 1): 0.94 h; MRT (in vivo; SD rat, Rat 3): 0.55 h; MRT (in vivo; [8]): 0.75 ± 0.28 h; half-life (in vivo; t1/2, SD rat, Rat 1): 1.84 h; half-life (in vivo; t1/2, SD rat, Rat 3): 1.21 h; half-life (in vivo; t1/2, SD rats, Mean ± SD (Rat 1 and 3)): 1.53 ± 0.45 h; IC50 (T spleen cells): 33000 ± 5720 nM
CC(=O)Oc1cccc(O)c1C(=O)NC(=O)NC1c2ccccc2-c2ccccc21 [Compound 14, 1-(2-Acetoxy-6-hydroxybenzoyl)-3-(9H-fluoren-9-yl)-urea] |  | 800 ± 230 |  | 710 ± 340 | > 16000 | 550 ± 30 | 550 ± 30 | 770 ± 370 | 2430 ± 500 | 
CC(C)OC(=O)[C@H](C)N[P@](=O)(OC[C@H]1O[C@@H](n2ccc(=O)[nH]c2=O)[C@](C)(F)[C@@H]1O)Oc1ccccc1 [Sofosbuvir, reference compound] | 1140 ± 210 |  | 220 ± 70 |  |  |  |  |  |  | CC50 at 48 h ([3]; Table 5): > 20000 nM
O=C(NC(=O)c1c(O)cccc1OC(=O)c1ccccc1)NC1c2ccccc2-c2ccccc21 [Compound 18, 1-(2-Benzoyloxy-6-hydroxybenzoyl)-3-(9H-fluoren-9-yl)-urea] |  | 1030 ± 20 |  | 700 ± 230 | > 16000 |  | 1050 ± 10 | 600 ± 350 | 1990 ± 470 | melting point: 211 to 214 °C
C/C=C/C[C@@H](C)[C@@H](O)[C@H]1C(=O)N[C@@H](CC)C(=O)N(C)[C@H](C)C(=O)N(CC)[C@@H](C(C)C)C(=O)N[C@@H](C(C)C)C(=O)N(C)[C@@H](CC(C)C)C(=O)N[C@@H](C)C(=O)N[C@H](C)C(=O)N(C)[C@@H](CC(C)C)C(=O)N(C)[C@@H](CC(C)C)C(=O)N(C)[C@@H](C(C)C)C(=O)N1C [alisporivir] |  |  |  |  |  |  |  |  |  | EC50 (HCV subgenomic replicon; ref [6], read-out: EC50 (subgenomic replicon assay)): 45 nM
